The source of these data is paper PMC9586306 (Proceedings of the National Academy of Sciences of the …, 2022).

Each structure is given as a SMILES string.

As a reminder, the IC50 is the concentration at which inhibition is half-maximal.

For test [1], the target named is IBV NA (B/Singapore/222/1979) (Influenza B virus, UniProt P16203). The class given is biochemical, Influenza B virus B/Singapore/222/1979. The settings on record: read-out: IC50 ± SEM.
In test [2] the target is A/California/04/2009 (H1N1) neuraminidase (09N1) (Influenza A virus (A/California/04/2009(H1N1)), UniProt C3W5S3). The class given is biochemical. The settings on record: read-out: IC50 ± SEM.

Chain of IBV NA (B/Singapore/222/1979) (P16203 77-466 limits assumed): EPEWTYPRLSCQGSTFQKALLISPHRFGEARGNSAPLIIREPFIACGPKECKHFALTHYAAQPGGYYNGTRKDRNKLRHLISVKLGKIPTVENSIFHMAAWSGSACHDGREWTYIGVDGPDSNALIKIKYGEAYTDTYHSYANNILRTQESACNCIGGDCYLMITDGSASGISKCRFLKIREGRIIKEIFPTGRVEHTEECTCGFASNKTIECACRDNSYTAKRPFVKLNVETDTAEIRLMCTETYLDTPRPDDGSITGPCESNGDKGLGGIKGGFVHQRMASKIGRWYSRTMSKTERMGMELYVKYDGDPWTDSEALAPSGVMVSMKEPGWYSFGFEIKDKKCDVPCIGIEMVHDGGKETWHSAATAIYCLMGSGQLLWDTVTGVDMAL

Regarding `CCC(CC)[C@H](NC(C)=O)[C@@H]1[C@H](O)[C@@H](C(=O)O)C[C@H]1N=C(N)N` [Peramivir, peramivir], the IC50 in test [1] was 16.9 ± 1.94 nM; in test [2] it was 0.45 ± 0.08 nM.
